Measurements reported in patent US10669252B2, “Benzazepine derivative, preparation method, pharmaceutical composition and use thereof” (SHANGHAI DE NOVO PHARMATECH CO., LTD., priority 2016, dated 2020).

Legend:
TLR8 = target: T1, TLR8 (Homo sapiens, UniProt Q9NR97); experiment: TLR8 cell based assay (HEK-BLUE-hTLR8, SEAP reporter linked to NF-κB activation); conditions: HEK-BLUE-hTLR8 cells
T1 construct: host or cells: HEK293 (HEK-BLUE-hTLR8)
T1 sequence (Q9NR97 27-1041): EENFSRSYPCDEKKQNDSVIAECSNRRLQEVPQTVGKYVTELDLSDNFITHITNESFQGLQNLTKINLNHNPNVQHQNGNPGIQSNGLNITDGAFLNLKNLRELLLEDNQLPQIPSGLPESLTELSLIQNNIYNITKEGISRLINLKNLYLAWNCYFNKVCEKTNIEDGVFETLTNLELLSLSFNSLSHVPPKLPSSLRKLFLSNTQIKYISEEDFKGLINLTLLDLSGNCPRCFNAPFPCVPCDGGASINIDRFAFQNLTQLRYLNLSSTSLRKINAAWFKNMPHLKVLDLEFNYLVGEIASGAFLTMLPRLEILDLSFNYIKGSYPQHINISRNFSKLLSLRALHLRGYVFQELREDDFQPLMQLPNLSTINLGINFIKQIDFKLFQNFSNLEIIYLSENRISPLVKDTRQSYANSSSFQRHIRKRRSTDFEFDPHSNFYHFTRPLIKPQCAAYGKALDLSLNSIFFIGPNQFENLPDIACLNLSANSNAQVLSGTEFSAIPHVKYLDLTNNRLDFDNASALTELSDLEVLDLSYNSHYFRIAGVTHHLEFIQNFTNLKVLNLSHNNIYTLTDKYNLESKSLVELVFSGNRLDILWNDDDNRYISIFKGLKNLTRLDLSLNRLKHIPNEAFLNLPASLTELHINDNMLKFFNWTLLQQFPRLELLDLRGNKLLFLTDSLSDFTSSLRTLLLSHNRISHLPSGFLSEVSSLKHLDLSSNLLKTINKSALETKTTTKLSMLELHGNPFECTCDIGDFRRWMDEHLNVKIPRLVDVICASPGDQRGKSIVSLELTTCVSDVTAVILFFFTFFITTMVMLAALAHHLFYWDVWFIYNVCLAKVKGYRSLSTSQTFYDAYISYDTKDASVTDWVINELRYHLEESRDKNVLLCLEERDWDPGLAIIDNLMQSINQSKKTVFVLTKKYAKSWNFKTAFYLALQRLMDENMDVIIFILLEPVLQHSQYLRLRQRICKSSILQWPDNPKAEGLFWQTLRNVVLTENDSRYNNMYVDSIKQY
Experimental: (§1) In this assay, the bioactivity of compound of formula Iw as measured using a cell based assay. The assay was performed in human embryonic kidney cells (HEK293) expressing TLR8 or other TLR family members such as TLR4, TLR7 and TLR9 (for selectivity screens). The activity of specific TLR agonists was assessed using the secretory embryonic alkaline phosphatase (SEAP) reporter gene that is linked to NF-κB activation in response to TLR stimulation. The SEAP activity was measured using the Quanti-Blue substrate (InvivoGen) after TLR agonist treatment.
(§2) The detailed experimental method is as follow:
HEK-BLUE-hTLR8 cell line was purchased from InvivoGen. The cells were cultured in Dulbecco's Modified Eagle's Media containing 4.5 g/L […] (Sigma-Aldrich) and 10% FBS. The cells were cultured at 37° C., 95% humidity and 5% CO2.
Test concentrations of the compounds ranged from 0.5 nM to 15 μM with 10 points. A known TLR8 agonist was added as positive control and 1 μl of DMSO was added as negative control.
(§3) The cells were prepared as follows: The cells were removed from the incubator and growth medium was discarded. The cells were gently rinsed with pre-warmed 10 ml PBS for a T-150 flask. 12 ml pre-warmed growth medium was added, and the cells were detached by tapping the flask. Cell clumps were dissociated by gently pipetting up and down. The cells were counted. Single cell suspension was prepared at 200,000 cells per ml in growth medium and 200 μl of the cell suspension (40,000 cells per well) were immediately added to each well of the plate. The final DMSO concentration of each well was 0.5%.
The cells were cultured and treated with the compounds at 37° C., 5% CO2 for 24 h.
(§4) 20 μL of the supernatant of each well were added to 180 μL of QUANTI-Blue, and the plates were incubated at 37° C. for 1.5 hour. Optical density was measured using a spectrophotometer at 650 nm (OD data). Activivation was calculated by using the equation below: Activivation %=(Compound OD mean value−DMSO OD mean value)/(positive control OD mean value−DMSO OD mean value)×100
(§5) The data were analyzed using the GraphPad to get EC50 values and fitting dose response curves of the compounds.

TLR7 = target: T2, TLR7 (Homo sapiens, UniProt Q9NYK1); experiment: TLR7 cell based assay (HEK-BLUE-hTLR7, SEAP reporter linked to NF-κB activation); conditions: HEK-BLUE-hTLR7 cells, 24 hours treatment, SEAP/QUANTI-Blue readout
T2 construct: host or cells: HEK293 (HEK-BLUE-hTLR7)
T2 sequence (Q9NYK1 27-1049): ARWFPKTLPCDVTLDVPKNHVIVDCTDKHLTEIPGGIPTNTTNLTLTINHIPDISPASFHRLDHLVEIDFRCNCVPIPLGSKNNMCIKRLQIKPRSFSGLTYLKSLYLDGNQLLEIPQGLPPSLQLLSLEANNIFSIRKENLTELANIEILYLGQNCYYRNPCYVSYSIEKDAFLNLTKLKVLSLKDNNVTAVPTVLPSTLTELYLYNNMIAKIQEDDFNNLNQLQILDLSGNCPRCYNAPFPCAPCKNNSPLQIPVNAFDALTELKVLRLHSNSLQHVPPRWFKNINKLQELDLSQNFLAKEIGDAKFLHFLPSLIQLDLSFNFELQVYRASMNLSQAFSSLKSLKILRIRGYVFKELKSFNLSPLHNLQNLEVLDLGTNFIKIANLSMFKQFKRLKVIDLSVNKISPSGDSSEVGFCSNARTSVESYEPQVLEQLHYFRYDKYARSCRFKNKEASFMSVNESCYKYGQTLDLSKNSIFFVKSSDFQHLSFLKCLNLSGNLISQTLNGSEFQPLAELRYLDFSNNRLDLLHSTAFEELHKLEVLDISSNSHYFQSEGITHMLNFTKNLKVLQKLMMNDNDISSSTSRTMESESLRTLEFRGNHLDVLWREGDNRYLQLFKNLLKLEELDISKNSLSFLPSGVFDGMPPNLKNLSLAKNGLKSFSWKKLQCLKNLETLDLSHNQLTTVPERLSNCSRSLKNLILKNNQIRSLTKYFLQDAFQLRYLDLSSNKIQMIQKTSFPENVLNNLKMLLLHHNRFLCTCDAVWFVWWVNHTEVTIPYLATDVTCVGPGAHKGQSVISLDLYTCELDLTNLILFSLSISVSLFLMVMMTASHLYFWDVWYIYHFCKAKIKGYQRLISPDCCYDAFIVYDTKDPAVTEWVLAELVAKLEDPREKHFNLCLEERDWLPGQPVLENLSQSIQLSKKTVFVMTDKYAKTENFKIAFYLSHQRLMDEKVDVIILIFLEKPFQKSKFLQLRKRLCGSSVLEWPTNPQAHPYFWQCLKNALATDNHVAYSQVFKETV
Experimental: as §1, with “(I) was” for “Iw as”, “TLR7” for “TLR8”, “TLR4,” for “TLR4, TLR7”
as §2
HEK-BLUE-hTLR7 cell line was purchased from InvivoGen. The cells were cultured in Dulbecco's Modified Eagle's Media containing 4.5 g/L […] (Sigma-Aldrich) and 10% FBS. The cells were cultured at 37° C., 95% humidity and 5% CO2.
[…] A known TLR8 agonist was added as positive control and 1 μl of DMSO was added as negative control.
as §3, with “follows.” for “follows:”
The cells were cultured and treated with the compounds at 37° C., 5% CO2 for 24 hours.
as §4, §5

[1] = 24 h treatment, SEAP/QUANTI-Blue readout

CCCN(CCC)C(=O)C1=Cc2ccc(-c3ccc4c(=O)n(Cc5ncco5)ccc4c3)cc2N=C(N)C1 [Compound 1-2-28]
EC50 (TLR8; [1]): < 100 nM | EC50 (TLR7): 10 to 50 µM

CCCN(CCC)C(=O)C1=Cc2ccc(-c3ccc4c(=O)n(CCN)ccc4c3)cc2N=C(N)C1 [Compound 1-2-17]
EC50 (TLR8; [1]): < 100 nM | EC50 (TLR7): > 50 µM

CCCN(CCC)C(=O)C1=Cc2ccc(-c3ccc4c(=O)n(Cc5nnnn5C)ccc4c3)cc2N=C(N)C1 [Compound 1-2-40]
EC50 (TLR8; [1]): < 100 nM | EC50 (TLR8; bound stated): < 10 nM | EC50 (TLR7): > 50 µM

CCCN(CCC)C(=O)C1=Cc2ccc(-c3ccc4c(c3)CCN(CCO)C4=O)cc2N=C(N)C1 [Compound 1-4-10]
EC50 (TLR8; [1]): 100 to 1000 nM | EC50 (TLR7): > 50 µM

CCCN(CCC)C(=O)C1=Cc2ccc(-c3ccc4c(c3)CCN(CC(C)(C)O)C4=O)cc2N=C(N)C1 [Compound 1-4-2]
EC50 (TLR8; [1]): < 100 nM | EC50 (TLR7): > 50 µM

CCCN(CCC)C(=O)C1=Cc2ccc(-c3ccc4c(=O)n(Cc5nncn5C)ccc4c3)cc2N=C(N)C1 [Compound 1-2-36]
EC50 (TLR8; [1]): < 100 nM | EC50 (TLR7): 10 to 50 µM

CCCN(CCC)C(=O)C1=Cc2ccc(-c3ccc4c(c3)CN(CCO)C4=O)cc2N=C(N)C1 [Compound 1-3-2]
EC50 (TLR8; [1]): < 100 nM | EC50 (TLR7): > 50 µM

CCCN(CCC)C(=O)C1=Cc2ccc(-c3ccc4c(=O)n(CCS(=O)(=O)CC)ncc4c3)cc2N=C(N)C1 [Compound 1-8-12]
EC50 (TLR8; [1]): < 100 nM | EC50 (TLR7): 10 to 50 µM

CCCN(CCC)C(=O)C1=Cc2ccc(-c3ccc4c(=O)n(CC(N)=O)ccc4c3)cc2N=C(N)C1 [Compound 1-2-10]
EC50 (TLR8; [1]): < 100 nM | EC50 (TLR7): > 50 µM

CCCN(CCC)C(=O)C1=Cc2ccc(-c3ccc4c(=O)n(Cc5ccn(C)n5)ccc4c3)cc2N=C(N)C1 [Compound 1-2-35]
EC50 (TLR8; [1]): < 100 nM | EC50 (TLR7): > 50 µM

CCCN(CCC)C(=O)C1=Cc2ccc(-c3ccc4c(=O)n(CC(C)(C)O)c(C)cc4c3)cc2N=C(N)C1 [Compound 1-2-9]
EC50 (TLR8; [1]): < 100 nM | EC50 (TLR7): > 50 µM

CCCN(CCC)C(=O)C1=Cc2ccc(-c3ccc4c(=O)n(CC(N)=O)c(C)cc4c3)cc2N=C(N)C1 [Compound 1-2-16]
EC50 (TLR8; [1]): < 100 nM | EC50 (TLR7): > 50 µM

CCCN(CCC)C(=O)C1=Cc2ccc(-c3ccc4c(=O)n(CCP(=O)(OCC)OCC)ccc4c3)cc2N=C(N)C1 [Compound 1-2-43]
EC50 (TLR8; [1]): 100 to 1000 nM | EC50 (TLR7): > 50 µM

CCCN(CCC)C(=O)C1=Cc2ccc(-c3ccc4c(=O)n(CCSC)ccc4c3)cc2N=C(N)C1 [Compound 1-2-22]
EC50 (TLR8; [1]): < 100 nM | EC50 (TLR7): > 50 µM

CCCN(CCC)C(=O)C1=Cc2ccc(-c3ccc4c(=O)n(CCO)ncc4c3)cc2N=C(N)C1 [Compound 1-8-3]
EC50 (TLR8; [1]): < 100 nM | EC50 (TLR7): > 50 µM

CCCN(CCC)C(=O)C1=Cc2ccc(-c3ccc4c(=O)n(CCO)c(=O)n(C)c4c3)cc2N=C(N)C1 [Compound 1-9-1]
EC50 (TLR8; [1]): < 100 nM | EC50 (TLR7): > 50 µM

CCCN(CCC)C(=O)C1=Cc2ccc(-c3ccc4c(=O)n(CCS(C)(=O)=O)cnc4c3)cc2N=C(N)C1 [Compound 1-7-2]
EC50 (TLR8; [1]): 100 to 1000 nM | EC50 (TLR7): > 50 µM

CCCN(CCC)C(=O)C1=Cc2ccc(-c3ccc4c(=O)n(CCS(C)(=O)=O)c(=O)n(C)c4c3)cc2N=C(N)C1 [Compound 1-9-4]
EC50 (TLR8; [1]): 100 to 1000 nM | EC50 (TLR7): > 50 µM

CCCN(CCC)C(=O)C1=Cc2ccc(-c3ccc4c(=O)n(CCNC(C)=O)ccc4c3)cc2N=C(N)C1 [Compound 1-2-18]
EC50 (TLR8; [1]): < 100 nM | EC50 (TLR7): > 50 µM

CCCN(CCC)C(=O)C1=Cc2ccc(-c3ccc4c(=O)n(CC(=O)NC)c(=O)n(C)c4c3)cc2N=C(N)C1 [Compound 1-9-2]
EC50 (TLR8; [1]): < 100 nM | EC50 (TLR7): > 50 µM

CCCN(CCC)C(=O)C1=Cc2ccc(-c3ccc4c(=O)n(CCS(C)(=O)=O)ccc4c3)cc2N=C(N)C1 [Compound 1-2-23]
EC50 (TLR8; [1]): < 100 nM | EC50 (TLR7): > 50 µM

CCCN(CCC)C(=O)C1=Cc2ccc(-c3ccc4c(=O)n(CC(=O)NC)ncc4c3)cc2N=C(N)C1 [Compound 1-8-2]
EC50 (TLR8; [1]): < 100 nM | EC50 (TLR7): > 50 µM

CCCN(CCC)C(=O)C1=Cc2ccc(-c3ccc4c(=O)n(CCOP(=O)(OC)OC)ccc4c3)cc2N=C(N)C1 [Compound 1-2-45]
EC50 (TLR8; [1]): < 100 nM | EC50 (TLR7): 10 to 50 µM

CCCN(CCC)C(=O)C1=Cc2ccc(-c3ccc4c(=O)n(CCO)c(C)cc4c3)cc2N=C(N)C1 [Compound 1-2-8]
EC50 (TLR8; [1]): < 100 nM | EC50 (TLR7): > 50 µM

CCCN(CCC)C(=O)C1=Cc2ccc(-c3ccc4c(=O)n(CC(=O)NC)ccc4c3)cc2N=C(N)C1 [Compound 1-2-21]
EC50 (TLR8; [1]): < 100 nM | EC50 (TLR7): > 50 µM
